Measured values from patent US20210045385A1, “PYRIDAZINONE-SUBSTITUTED KETOXIMES AS HERBICIDES” (FMC Corporation, priority 2018, published 2021).

Columns and labels:
Assay type in all cases: in vivo
[1] = system: Italian ryegrass (Lolium multiflorum); test: Test A preemergence, visual plant response rating; conditions: for Ryegrass, Italian plant response rating: 125 g ai/ha, preemergence, 0 to 100 scale, 0 no effect, 100 complete control; for Ryegrass, Italian plant response rating (0 to 100 scale): 500 g ai/ha Preemergence, approx. 10 days
Description: (§1) Seeds of plant species selected from barnyardgrass (Echinochloa crus-galli), kochia (Kochia scoparia), ragweed (common ragweed, Ambrosia elatior), Italian ryegrass (Lolium multiflorum), foxtail, giant (giant foxtail, Setaria faberii), foxtail, green (green foxtail, Setaria viridis), and pigweed (Amaranthus retroflexus) were planted into a blend of loam soil and sand and treated preemergence with a directed soil spray using test chemicals formulated in a non-phytotoxic solvent mixture which included a surfactant.
(§2) At the same time, plants selected from these weed species and also wheat (Triticum aestivum), corn (Zea mays), blackgrass (Alopecurus myosuroides), and galium (catchweed bedstraw, Galium aparine) were planted in pots containing the same blend of loam soil and sand and treated with postemergence applications of test chemicals formulated in the same manner. Plants ranged in height from 2 to 10 cm and were in the one- to two-leaf stage for the postemergence treatment. Treated plants and untreated controls were maintained in a greenhouse for approximately 10 days, after which time all treated plants were compared to untreated controls and visually evaluated for injury. Plant response ratings, summarized in Table A, are based on a 0 to 100 scale where 0 is no effect and 100 is complete control. A dash (-) response means no test result.

[2] = system: barnyardgrass (Echinochloa crus-galli); test: Test A preemergence, visual plant response rating; conditions: for Barnyardgrass plant response rating: 125 g ai/ha, preemergence, 0 to 100 scale, 0 no effect, 100 complete control; for Barnyardgrass plant response rating (0 to 100 scale): 500 g ai/ha Preemergence, approx. 10 days
Description: as §1, §2

[3] = system: foxtail, giant (giant foxtail, Setaria faberii); test: Test A preemergence, visual plant response rating; conditions: for Foxtail, Giant plant response rating: 125 g ai/ha, preemergence, 0 to 100 scale, 0 no effect, 100 complete control; for Foxtail, Giant plant response rating (0 to 100 scale): 500 g ai/ha Preemergence, approx. 10 days
Description: as §1, §2

kochia (Kochia scoparia) [4] = test: Test A preemergence, visual plant response rating; conditions: for Kochia plant response rating: 125 g ai/ha, preemergence, 0 to 100 scale, 0 no effect, 100 complete control; for Kochia plant response rating (0 to 100 scale): 500 g ai/ha Preemergence, approx. 10 days
Description: as §1, §2

[5] = system: pigweed (Amaranthus retroflexus); test: Test A preemergence, visual plant response rating; conditions: for Pigweed plant response rating: 125 g ai/ha, preemergence, 0 to 100 scale, 0 no effect, 100 complete control; for Pigweed plant response rating (0 to 100 scale): 500 g ai/ha Preemergence, approx. 10 days
Description: as §1, §2

[6] = system: Italian ryegrass (Lolium multiflorum); test: Test A postemergence, visual plant response rating; conditions: for Ryegrass, Italian plant response rating (0 to 100 scale): 500 g ai/ha, postemergence, 0 is no effect, 100 is complete control; for Ryegrass, Italian plant response rating: Postemergence, 125 g ai/ha, 0 to 100 scale (0 no effect, 100 complete control)
Description: as §1, §2

[7] = system: barnyardgrass (Echinochloa crus-galli); test: Test A postemergence, visual plant response rating; conditions: for Barnyardgrass plant response rating (0 to 100 scale): 500 g ai/ha, postemergence, 0 is no effect, 100 is complete control; for Barnyardgrass plant response rating: Postemergence, 125 g ai/ha, 0 to 100 scale (0 no effect, 100 complete control)
Description: as §1, §2

[8] = system: blackgrass (Alopecurus myosuroides); test: Test A postemergence, visual plant response rating; conditions: for Blackgrass plant response rating (0 to 100 scale): 500 g ai/ha, postemergence, 0 is no effect, 100 is complete control; for Blackgrass plant response rating: Postemergence, 125 g ai/ha, 0 to 100 scale (0 no effect, 100 complete control)
Description: as §1, §2

corn (Zea mays) = test: Test A postemergence, visual plant response rating; conditions: for Corn plant response rating (0 to 100 scale): 500 g ai/ha, postemergence, 0 is no effect, 100 is complete control; for Corn plant response rating: Postemergence, 125 g ai/ha, 0 to 100 scale (0 no effect, 100 complete control)
Description: as §1, §2

[9] = system: foxtail, giant (giant foxtail, Setaria faberii); test: Test A postemergence, visual plant response rating; conditions: for Foxtail, Giant plant response rating (0 to 100 scale): 500 g ai/ha, postemergence, 0 is no effect, 100 is complete control; for Foxtail, Giant plant response rating: Postemergence, 125 g ai/ha, 0 to 100 scale (0 no effect, 100 complete control)
Description: as §1, §2

[10] = system: galium (catchweed bedstraw, Galium aparine); test: Test A postemergence, visual plant response rating; conditions: for Galium plant response rating (0 to 100 scale): 500 g ai/ha, postemergence, 0 is no effect, 100 is complete control; for Galium plant response rating: Postemergence, 125 g ai/ha, 0 to 100 scale (0 no effect, 100 complete control)
Description: as §1, §2

kochia (Kochia scoparia) [11] = test: Test A postemergence, visual plant response rating; conditions: for Kochia plant response rating (0 to 100 scale): 500 g ai/ha, postemergence, 0 is no effect, 100 is complete control; for Kochia plant response rating: Postemergence, 125 g ai/ha, 0 to 100 scale (0 no effect, 100 complete control)
Description: as §1, §2

[12] = system: pigweed (Amaranthus retroflexus); test: Test A postemergence, visual plant response rating; conditions: for Pigweed plant response rating (0 to 100 scale): 500 g ai/ha, postemergence, 0 is no effect, 100 is complete control; for Pigweed plant response rating: Postemergence, 125 g ai/ha, 0 to 100 scale (0 no effect, 100 complete control)
Description: as §1, §2

[13] = system: ragweed (common ragweed, Ambrosia elatior); test: Test A postemergence, visual plant response rating; conditions: for Ragweed plant response rating (0 to 100 scale): 500 g ai/ha, postemergence, 0 is no effect, 100 is complete control; for Ragweed plant response rating: Postemergence, 125 g ai/ha, 0 to 100 scale (0 no effect, 100 complete control)
Description: as §1, §2

[14] = system: wheat (Triticum aestivum); test: Test A postemergence, visual plant response rating; conditions: for Wheat plant response rating (0 to 100 scale): 500 g ai/ha, postemergence, 0 is no effect, 100 is complete control; for Wheat plant response rating: Postemergence, 125 g ai/ha, 0 to 100 scale (0 no effect, 100 complete control)
Description: as §1, §2

[15] = system: barnyardgrass (Echinochloa crus-galli); test: Test B flooded paddy test, visual plant response rating; conditions: 250 g ai/ha, Flood, applied to paddy water, 2-leaf stage, evaluated after 13 to 15 days
Procedure: (§3) Plant species in the flooded paddy test selected from rice (Oryza sativa), sedge, umbrella (small-flower umbrella sedge, Cyperus difformis), ducksalad (Heteranhera limosa), and barnyardgrass (Echinochloa crus-galli) were grown to the 2-leaf stage for testing. At time of treatment, test pots were flooded to 3 cm above the soil surface treated by application of test compounds directly to the paddy water, and then maintained at that water depth for the duration of the test. Treated plants and controls were maintained in a greenhouse for 13 to 15 days, after which time all species were compared to controls and visually evaluated. […] A dash (-) response means no test result.

[16] = system: ducksalad (Heteranhera limosa); test: as above; conditions: 250 g ai/ha, Flood, applied to paddy water, 2-leaf stage, evaluated after 13 to 15 days
Procedure: as §3

rice (Oryza sativa) = test: as above; conditions: 250 g ai/ha, Flood, applied to paddy water, 2-leaf stage, evaluated after 13 to 15 days
Procedure: as §3

[17] = system: sedge, umbrella (small-flower umbrella sedge, Cyperus difformis); test: as above; conditions: 250 g ai/ha, Flood, applied to paddy water, 2-leaf stage, evaluated after 13 to 15 days
Procedure: as §3

SMILES	Ryegrass, Italian plant response rating [1]	Ryegrass, Italian plant response rating (0 to 100 scale) [1]	Barnyardgrass plant response rating [2]	Barnyardgrass plant response rating (0 to 100 scale) [2]	Foxtail, Giant plant response rating [3]	Foxtail, Giant plant response rating (0 to 100 scale) [3]	Kochia plant response rating (kochia (Kochia scoparia) [4])	Kochia plant response rating (0 to 100 scale) (kochia (Kochia scoparia) [4])	Pigweed plant response rating [5]	Pigweed plant response rating (0 to 100 scale) [5]	Ryegrass, Italian plant response rating (0 to 100 scale) [6]	Ryegrass, Italian plant response rating [6]	Barnyardgrass plant response rating (0 to 100 scale) [7]	Barnyardgrass plant response rating [7]	Blackgrass plant response rating (0 to 100 scale) [8]	Blackgrass plant response rating [8]	Corn plant response rating (0 to 100 scale) (corn (Zea mays))	Corn plant response rating (corn (Zea mays))	Foxtail, Giant plant response rating (0 to 100 scale) [9]	Foxtail, Giant plant response rating [9]	further results
CON=C(c1cc(Cl)ccc1Cl)c1c(O)c(C)nn(C)c1=O [Compound 90]	60	90	60	80	50	90	50	70	90	100	90	80	60	20	90	80	30	20	80	30	Galium plant response rating (0 to 100 scale) [10]: 90; Galium plant response rating [10]: 90; Kochia plant response rating (0 to 100 scale) (kochia (Kochia scoparia) [11]): 80; Kochia plant response rating (kochia (Kochia scoparia) [11]): 60; Pigweed plant response rating (0 to 100 scale) [12]: 90; Pigweed plant response rating [12]: 60; Ragweed plant response rating (0 to 100 scale) [13]: 90; Ragweed plant response rating [13]: 70; Wheat plant response rating (0 to 100 scale) [14]: 40; Wheat plant response rating [14]: 30; Plant response rating, Barnyardgrass (0 to 100 scale, 0 is no effect, 100 is complete control) [15]: 0; Plant response rating, Ducksalad (0 to 100 scale, 0 is no effect, 100 is complete control) [16]: 0; Plant response rating, Rice (0 to 100 scale, 0 is no effect, 100 is complete control) (rice (Oryza sativa)): 0; Plant response rating, Sedge, Umbrella (0 to 100 scale, 0 is no effect, 100 is complete control) [17]: 0
CON=C(c1cc(Cl)ccc1Cl)c1c(O)c(C)nn(C)c1=O [Compound 98]	80	90	50	60	60	70	60	60	90	100	80	80	80	50	90	80	20	0	80	40	Galium plant response rating (0 to 100 scale) [10]: 100; Galium plant response rating [10]: 80; Kochia plant response rating (0 to 100 scale) (kochia (Kochia scoparia) [11]): 80; Kochia plant response rating (kochia (Kochia scoparia) [11]): 60; Pigweed plant response rating (0 to 100 scale) [12]: 80; Pigweed plant response rating [12]: 70; Ragweed plant response rating (0 to 100 scale) [13]: 90; Ragweed plant response rating [13]: 80; Wheat plant response rating (0 to 100 scale) [14]: 20; Wheat plant response rating [14]: 0; Plant response rating, Barnyardgrass (0 to 100 scale, 0 is no effect, 100 is complete control) [15]: 0; Plant response rating, Ducksalad (0 to 100 scale, 0 is no effect, 100 is complete control) [16]: 0; Plant response rating, Rice (0 to 100 scale, 0 is no effect, 100 is complete control) (rice (Oryza sativa)): 0; Plant response rating, Sedge, Umbrella (0 to 100 scale, 0 is no effect, 100 is complete control) [17]: 0
